Results from patent US20240158453A1, “Nucleic Acids That Manipulate Immune Pathways” (Children`s Medical Center Corporation, priority 2017, published 2024).
Starred links: 1 amine or outer side, 2 acyl side, 3 side chain; linkers in the order of their positions; H or OH if unused. Positions of bridges follow the written chain, without caps; N, C: chain ends. Non-standard residues stand in square brackets, D forms with d. Residues, ends and D or L forms follow the SMILES beside them. Chains are numbered I, II in the order given. *: point of attachment. Actinocin(9to1) = Cc1c2oc3c(C)ccc(C(=O)[*:1])c3nc-2c(C(=O)[*:2])c(N)c1=O; NMeV = CN[C@H](C(=O)O)C(C)C; Cbz = O=C(OCc1ccccc1)*; Sar = CNCC(=O)O; CH2F = FC*

Key:
[1] = test system: primary BMDMs; assay: Seahorse metabolic analysis (ECAR, OCR) of TLR-induced glycolysis; type: cell-based; conditions: for TLR-induced ECAR increase: primary BMDMs with inhibitor (2-DG 25 mM; Actinomycin D 1.5 μg/ml; BX795 5 μM; MRT67307 2.5 μM; Triciribine 20 μM), stimulated with LPS, P3C, R848; for ECAR / mitochondrial oxygen consumption (OCR): primary BMDMs or iBMDMs stimulated with the TLR ligand
Experimental: Seahorse Metabolic Analysis. Extracellular acidification rate (ECAR) and oxygen consumption rate (OCR) were measured with a Seahorse XFe96 Extracellular Flux Analyzer instrument primary BMDMs and iBMDMs
For real-time experiment, primary BMDMs (5×10^4 per well) and iBMDMs (7.5×10^4 per well) were seed in a Seahorse 96 well plate in complete DMEM medium. Cells were allowed to attach to the assay plate for 4-5 hours, then cells were washed one time with serum-free Seahorse Assay Medium and incubated in Seahorse Assay Medium containing 5% FBS, 10 mM Glucose and 2 mM Glutammine in 37° C. incubator without CO2 for 60 min. ECAR and OCR was measured under basal conditions, after treatment with TLR ligands (LPS 1 μg/ml; P3C 1 μg/ml; R848 1 μg/ml) or inhibitors (and their combination). In the assays which required pre-treatment with inhibitors, chemical inhibitors were injected into the wells by the Seahorse Analyzer, and the incubation time were allowed to proceed for 45 min, prior to the injection of TLR ligands. […] Data represent mean±SEM of triplicate wells.

[2] = test system: glycolysis; assay: 2-DG treatment of TLR-activated cells (Example 6); type: cell-based
[3] = test system: Myd88-/-/Trif-/- iBMDMs; assay: PI staining and LDH release quantification (TLR-induced necroptosis); type: cell-based, murine; conditions: MyD88-RIP3 expressing cells; GSK872 2.5 μM; Nec-1 5 μM; ZVAD 10 μM
Experimental: (§1) PI staining and LDH release quantification. For experiments measuring end-point PI staining, PI (5 μM) was included in the culture media to monitor transient pore formation at the last 30 min for each incubation period. A Tecan plate reader was used to measure PI staining (excitation 535 nm, emission 617 nm). Supernatants were assayed for LDH release freshly after stimulation time courses using the Pierce LDH cytotoxicity colorimetric assay kit per the manufacturer's instruction. The same Tecan plate reader was used to measure LDH release (absorbance 490 nm and 680 nm). Cells treated with detergent-containing lysis buffer were used as positive control for PI staining, the resulted supernatants from treated cells were used as positive control for LDH release quantification.
Generation of synthetic MyD88 molecules. To generate MyD88-NpLxIS and MyD88 CpLxIS alleles, the cDNA sequence encoding the STING pLxIS motif (340-378 a.a.) was fused in tandem then attached to the cDNA sequence encoding the MyD88 protein either at the 5-prime end (for MyD88-NpLxIS) or at the 3-prime end (for MyD88-CpLxIS). The fusion cDNAs were then synthesized as gBLOCKs via IDT. The mutant alleles were also synthesized as gBLOCKs. To generate the MyD88-RIP3 allele, the cDNA sequence encoding the full-length RIP3 was attached the MyD88-encoding cDNA sequence at the 3-prime end. The fusion cDNA was then synthesized as a gBLOCK via IDT. All synthetic DNA sequences were optimized to avoid internal repeats and for optimal expression in murine cells via the IDT online program.

[4] = test system: Myd88-/-/Trif-/- iBMDMs expressing MyD88-RIP3; assay: Microscopy imaging of cell morphology; type: cell-based, murine
Experimental: Microscopy imaging of cell morphology and live cell imaging. To determine cell morphology after TLR stimulation, Myd8^−/−/Trif^−/− iBMDMs expressing MyD88 and MyD88-RIP3 were seeded in 12-well plates (0.5×10^6 per well) and were subjected to indicated treatments (Staurosporine 1 μM; TLR ligands 1 μg/ml) to induce cell death. For static image capture, a Nikon Eclipse TS100 microscope was used with 40× magnification. Images were processed with the “NIS-Elements F” software. Representative images were chosen from at least three randomly chosen fields from one representative experiment of three independent experiments.

[5] = test system: primary BMDMs; assay: LDH release from primary BMDMs stimulated with LPS in the presence of inhibitors; type: cell-based; conditions: 18 hr
Experimental: as §1

[6] = test system: AKT; assay: Western analysis of AKT phosphorylation in primary BMDMs stimulated with TLR ligands; type: cell-based; conditions: primary WT BMDMs
Experimental: (§2) Western blotting and immunoprecipitation. For western analysis of signaling pathway activation, primary BMDMs (1×10^6) or iBMDMs (0.5×10^6) were seeded in 12 well plates and stimulated with ligands for indicated periods, and subsequently lysed in 300 μl 1×SDS containing 8 M UREA. Lysates were incubated at 65° C. for 15 min. Before SDS-PAGE separation, lysates were passed through a BD 1 ml sub-Q syringe attached to a 26G needle to reduce viscosity. 15 μl of individual samples (15-20 μg protein from whole cell extract) were separated by SDS-PAGE followed by western analysis.

[7] = test system: TBK1; assay: Western analysis of TBK1 activation in primary BMDMs stimulated with TLR ligands; type: cell-based
Experimental: as §2

[8] = test system: Il-1b and Il-6 transcripts; assay: qPCR of TLR-induced Il-1b and Il-6 transcripts in primary BMDMs; type: cell-based; conditions: primary BMDMs pretreated with ActD 1.5 μg/ml for 40 min, TLR ligands 4 h
Experimental: (§3) Gene expression analysis and ELISA. RNA was isolated from cell cultures using Qiashedder (Qiagen) and GeneJET RNA Purification Kit (Life Technologies). Purified RNA was analyzed for gene expression on a CFX384 real time cycler (Bio-rad) using TaqMan RNA-to-CT 1-Step Kit (Applied Biosystems) with probes specific for Rsad2, II-1b, Il-6 and Gapdh.

[9] = test system: PARP; assay: PARP cleavage by western analysis; type: cell-based, murine; conditions: Myd88-/-/Trif-/- iBMDMs expressing MyD88-RIP3, TLR ligands or staurosporine 1 μM, 6 hr
Experimental: as §2

[10] = biological target: T1, myddosome (UniProt P0AES6+P22366); assay: Coumermycin-induced myddosome formation in Myd88-/-/Trif-/- iBMDMs expressing 3×FLAG-MyD88-GyrB; type: cell-based, murine; conditions: CM 0.5 μM
T1 construct: expressed in transfected cells; host or cells: Myd88-/-/Trif-/- iBMDMs, retroviral transduction (pMSCV-IRES-GFP)
Experimental: as §3
For myddosome isolation, iBMDMs (5×10^6) were stimulated with ligands for indicated times, and subsequently lysed in 400 μL of lysis buffer containing 50 mM Tris-HCl (pH 7.5), 150 mM NaCl, 5% Glycerol, 1 mM Sodium dioxycholate and 1% NP40. Protease inhibitors and phosphatase inhibitors were added prior to cell lysis. Lysates were spun at top speed for 15 minutes at a table-top centrifuge in the cold room (at 4° C.). The cleared supernatants were collected and 80 μL of the supernatants was saved as sample inputs. 0.5 μg of the anti-MyD88 antibody with 15 15 μl (bed volume) of protein G sepharose (for endogenous MyD88) or 15 μl (bed volume) of anti-FLAG (M2) agarose (for 3×FLAG-MyD88 alleles) was added to the remaining supernatants and the incubation were allowed to proceed for 4-5 hr at 4° C. on a nutator. The beads containing the protein complexes were then washed for 3 times with lysis buffer, and 60 μL of SDS loading buffer was added. The protein complexes were further eluted by heating at 65° C. for 15 minutes. A portion of eluted protein complexes (20 μl) were separated by SDS-PAGE and analyzed by western blot.
Cells were fixed at room temperature for 30 min, permeabilized with 0.2% Triton X-100 for 5 min at room temperature and […] with 2% goat serum in PBS supplemented with 50 mM ammonium chloride. Primary and secondary antibody staining were performed following product instructions. Working concentrations of primary antibodies were used as the following: pTBK1 (1:100), pp 38 (1:100), FLAG (M2) (1:100). Samples were imaged by the Zeiss 880 laser scanning confocal microscope.

[11] = test system: IRF3; assay: Western analysis of IRF3 activation in primary BMDMs stimulated with TLR ligands; type: cell-based
Experimental: as §2

[12] = biological target: T2, TLR4 (Mus musculus, UniProt Q9JHF9+Q9QUK6); assay: Isolation of protein complexes associated with activated TLR4; type: cell-based; conditions: iBMDMs, LPS 100 ng/ml, within minutes
T2 construct: endogenous in cells; host or cells: WT iBMDMs
Experimental: For isolation of protein complexes associated with activated TLRs, cells were lysed using a modified lysis buffer containing 50 mM HEPES, 150 mM NaCl, 0.5% DDM (n-Dodecyl-β-D-Maltoside), 0.05% CHS (cholesteryl hemisuccinate). This buffer is suitable for the isolation of membrane protein complexes. 0.5 μg of biotinylated anti-TLR4 (Sal5-21) antibody was used (per sample) to capture the TLR4 signaling complex with streptavidin agarose. 15 μl (bed volume) of anti-HA agarose was used (per sample) to capture the TLR9-HA signaling complex. Immunoprecipitates were washed 3 times with the modified lysis buffer and analyzed by western blot.

T2 sequence (Q8R4K2 whole entry): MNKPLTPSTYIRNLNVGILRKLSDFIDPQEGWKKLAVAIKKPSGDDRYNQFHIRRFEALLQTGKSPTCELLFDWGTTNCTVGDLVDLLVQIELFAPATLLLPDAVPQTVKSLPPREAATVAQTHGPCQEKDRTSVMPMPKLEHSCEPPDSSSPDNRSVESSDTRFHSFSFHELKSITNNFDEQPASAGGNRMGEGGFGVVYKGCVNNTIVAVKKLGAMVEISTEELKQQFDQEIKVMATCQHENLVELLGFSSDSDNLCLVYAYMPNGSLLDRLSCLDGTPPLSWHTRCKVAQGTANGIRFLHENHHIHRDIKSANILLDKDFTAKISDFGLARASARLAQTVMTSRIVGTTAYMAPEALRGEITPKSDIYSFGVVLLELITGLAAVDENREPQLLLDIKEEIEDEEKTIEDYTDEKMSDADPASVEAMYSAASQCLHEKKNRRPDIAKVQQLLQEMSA
T2 sequence (Q9QUK6 26-835): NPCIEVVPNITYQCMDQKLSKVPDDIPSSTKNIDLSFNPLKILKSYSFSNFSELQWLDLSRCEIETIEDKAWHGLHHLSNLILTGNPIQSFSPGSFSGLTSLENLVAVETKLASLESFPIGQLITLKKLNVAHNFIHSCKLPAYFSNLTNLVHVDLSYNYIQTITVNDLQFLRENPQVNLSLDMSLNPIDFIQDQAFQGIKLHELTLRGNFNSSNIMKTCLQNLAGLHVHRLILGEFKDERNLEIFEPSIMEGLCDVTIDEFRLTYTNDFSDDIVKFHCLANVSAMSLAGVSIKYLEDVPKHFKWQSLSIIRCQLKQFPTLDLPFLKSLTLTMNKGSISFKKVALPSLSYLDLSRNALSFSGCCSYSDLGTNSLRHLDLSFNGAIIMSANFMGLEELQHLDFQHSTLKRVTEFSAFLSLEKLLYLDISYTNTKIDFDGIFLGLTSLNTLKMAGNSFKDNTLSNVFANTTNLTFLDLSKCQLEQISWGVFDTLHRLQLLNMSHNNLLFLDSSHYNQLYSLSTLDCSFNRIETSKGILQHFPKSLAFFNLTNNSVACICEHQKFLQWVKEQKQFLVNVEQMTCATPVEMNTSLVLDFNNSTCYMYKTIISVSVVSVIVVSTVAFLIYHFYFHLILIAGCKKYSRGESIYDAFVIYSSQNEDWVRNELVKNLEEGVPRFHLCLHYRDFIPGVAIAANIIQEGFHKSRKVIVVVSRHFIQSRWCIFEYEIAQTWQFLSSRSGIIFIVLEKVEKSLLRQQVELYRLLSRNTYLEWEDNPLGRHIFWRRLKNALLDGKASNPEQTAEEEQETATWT
T2 sequence (Q9JHF9 19-160): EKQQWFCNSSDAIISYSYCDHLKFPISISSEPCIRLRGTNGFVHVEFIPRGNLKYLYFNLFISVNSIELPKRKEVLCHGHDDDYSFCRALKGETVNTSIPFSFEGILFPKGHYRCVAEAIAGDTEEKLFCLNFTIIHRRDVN
T2 sequence (P22366 whole entry, further chain): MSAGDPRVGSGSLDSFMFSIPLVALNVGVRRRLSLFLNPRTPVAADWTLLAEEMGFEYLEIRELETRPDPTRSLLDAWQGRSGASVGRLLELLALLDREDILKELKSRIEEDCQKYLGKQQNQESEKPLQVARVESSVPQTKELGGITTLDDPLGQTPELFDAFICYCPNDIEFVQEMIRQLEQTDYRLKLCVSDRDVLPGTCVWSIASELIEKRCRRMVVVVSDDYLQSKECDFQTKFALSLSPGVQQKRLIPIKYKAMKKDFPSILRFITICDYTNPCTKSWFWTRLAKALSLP
T2 sequence (Q8CFA1 whole entry, further chain): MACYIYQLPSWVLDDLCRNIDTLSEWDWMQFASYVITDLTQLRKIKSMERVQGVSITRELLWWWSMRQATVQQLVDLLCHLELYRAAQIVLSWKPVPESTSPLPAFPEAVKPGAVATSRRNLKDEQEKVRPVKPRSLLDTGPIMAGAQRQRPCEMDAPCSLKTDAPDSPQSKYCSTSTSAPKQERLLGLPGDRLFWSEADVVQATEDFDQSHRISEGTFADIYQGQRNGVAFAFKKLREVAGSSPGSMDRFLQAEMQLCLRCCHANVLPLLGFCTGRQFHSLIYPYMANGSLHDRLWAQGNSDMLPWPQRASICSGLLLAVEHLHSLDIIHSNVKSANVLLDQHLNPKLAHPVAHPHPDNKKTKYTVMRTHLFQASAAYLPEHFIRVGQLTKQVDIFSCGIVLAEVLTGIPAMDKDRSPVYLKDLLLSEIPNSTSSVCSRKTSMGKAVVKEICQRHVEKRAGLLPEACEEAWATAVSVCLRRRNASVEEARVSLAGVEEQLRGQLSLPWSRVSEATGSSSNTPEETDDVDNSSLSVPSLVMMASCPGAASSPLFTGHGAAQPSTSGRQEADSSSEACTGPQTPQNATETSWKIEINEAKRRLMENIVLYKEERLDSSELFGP

OCC1OC(O)CC(O)C1O (stereo not shown) [2-DG]
TLR-induced ECAR increase [1]: blocked | cytokine gene transcription versus translation [2]: uncoupled cytokine gene transcription from translation | host responses at the receptor proximal [2]: did not affect

O=C(NCCCNc1nc(Nc2cccc(NC(=O)N3CCCC3)c2)ncc1I)c1cccs1 [BX795]
TLR-induced ECAR increase [1]: dampened

CC(C)S(=O)(=O)c1ccc2nccc(Nc3ccc4scnc4c3)c2c1 [GSK872]
TLR-induced LDH release (cell death) with inhibitor [3]: blocked | TLR-induced PI staining (membrane rupture) with inhibitor [3]: blocked | morphological changes of TLR-stimulated MyD88-RIP3 cells with inhibitor pre-treatment ([4]; GSK872 2.5 μM): could be suppressed

O=C(NCCCNc1nc(Nc2cccc(CN3CCOCC3)c2)ncc1C1CC1)C1CCC1 [MRT67307]
TLR-induced ECAR increase [1]: dampened

CN1C(=O)C(Cc2c[nH]c3ccccc23)NC1=S (stereo not shown) [Nec-1]
prevention of ZVAD plus LPS induced necroptosis ([5]; primary BMDMs): could be prevented | TLR-induced LDH release (cell death) with inhibitor [3]: unaffected | TLR-induced PI staining (membrane rupture) with inhibitor [3]: unaffected

CCOCc1nc2c(N)nc3ccccc3c2n1CC(C)(C)O [R848]
AKT phosphorylation [6]: induced AKT phosphorylation | TBK1 activation (pTBK1) [7]: activated | ECAR [1]: increased ECAR rapidly | mitochondrial oxygen consumption (OCR) [1]: without causing discernible changes

COC(=O)C[C@H](NC(=O)[C@H](C)NC(=O)[C@@H](NC(=O)OCc1ccccc1)C(C)C)C(=O)CF [ZVAD] (Cbz-Val-Ala-Asp(OMe)-CH2F)
necroptosis (LDH release) of primary BMDMs ([5]; ZVAD 10 μM pre-treatment followed by LPS): induced necroptosis | TLR-induced LDH release (cell death) with inhibitor [3]: failed to prevent | TLR-induced PI staining (membrane rupture) with inhibitor [3]: failed to prevent

Cc1c2oc3c(C)ccc(C(=O)N[C@@H]4C(=O)N[C@H](C(C)C)C(=O)N5CCC[C@H]5C(=O)N(C)CC(=O)N(C)[C@@H](C(C)C)C(=O)O[C@@H]4C)c3nc-2c(C(=O)N[C@@H]2C(=O)N[C@H](C(C)C)C(=O)N3CCC[C@H]3C(=O)N(C)CC(=O)N(C)[C@@H](C(C)C)C(=O)O[C@@H]2C)c(N)c1=O [actinomycin D] (I: T[dV]P[Sar][NMeV] / II: T[dV]P[Sar][NMeV]; ester I:1-I:C, II:1-II:C; linker I:N-II:N via Actinocin(9to1))
TLR-induced transcription of Il-1b and Il-6 [8]: prevented | TLR-induced ECAR increase [1]: still able to increase ECAR

CN[C@@H]1C[C@H]2O[C@@](C)([C@@H]1OC)n1c3ccccc3c3c4c(c5c6ccccc6n2c5c31)C(=O)NC4 [staurosporine]
cell morphology ([4]; 1 hr post-stimulation, TLR ligands or staurosporine 1 μM): membrane blebbing, generation of apoptotic bodies/vesicles | PARP cleavage [9]: induced PARP cleavage

coumermycin [CM]
myddosome formation [10]: induced myddosome formation | p38 activation (nuclear staining pattern) ([10]; 30 min): clearly activated | pTBK1 staining of MyD88 specks ([10]; 30 min): stained positive for pTBK1 | phosphorylated p38 (pp38) within MyD88 specks ([10]; 30 min): not detected within MyD88 specks | cells with distinct MyD88 specks ([10]; 30 min, immunofluorescence): more than 60% | Il-1b expression ([10]; 4 hr, qPCR): comparable to that induced by LPS and P3C treatment

lipopolysaccharide [LPS]
AKT phosphorylation [6]: induced | TBK1 activation (pTBK1) [7]: activated | IRF3 activation (pIRF3) [11]: activated | ECAR [1]: increased ECAR rapidly | mitochondrial oxygen consumption (OCR) [1]: without causing discernible changes | recruitment of endogenous MyD88, IRAK2 and IRAK4 to TLR4 [12]: inducibly recruited
